Structures are written as SMILES. Non-standard residues stand in square brackets, D forms with d. Residues, ends and D or L forms follow the SMILES beside them. dGla = N[C@H](CC(C(=O)O)C(=O)O)C(=O)O; Cha = N[C@@H](CC1CCCCC1)C(=O)O

The target of data set [1] is T1, NS3 (Hepatitis C virus, UniProt A3EZJ3). Kind of data set: Inhibition of HCV genotype-1a full length NS3 protease preincubated for 10 mins followed by Ac-DED(Edans)EEAbuj-[COO]ASK(Dabcyl)-NH2 addition in presence of co-factor 2K-NS4A by fluorescence assay. Details: species or system Hepatitis C virus subtype 1a.
The target of data set [2] is T1, NS3. Kind of data set: Inhibition of HCV genotype-3a full length NS3 protease preincubated for 10 mins followed by Ac-DED(Edans)EEAbuj-[COO]ASK(Dabcyl)-NH2 addition in presence of co-factor 2K-NS4A by fluorescence assay. Details: species or system Hepatitis C virus subtype 3a.
The next data set relates to Hepatitis C virus. In words: Antiviral activity against HCV genotype 1b infected in human HuH7 cells. The conditions noted are these: Huh-7. The data set is classed as functional, organism-based, Hepacivirus hominis.
Data set [3] concerns the target NS3 (Hepatitis C virus, UniProt A3EZJ3, R155K). Kind of data set: Inhibition of HCV genotype-1a full length NS3 protease R155K mutant preincubated for 10 mins followed by Ac-DED(Edans)EEAbuj-[COO]ASK(Dabcyl)-NH2 addition in presence of co-factor 2K-NS4A by fluorescence assay. Details: species or system Hepatitis C virus subtype 1a.
Data set [4] is described as follows: Cytotoxicity against human HuH7 cell. Type of data set: cell-based, Huh-7. The conditions noted are these: HuH7 cells.
Data set [5] deals with T1, NS3. Kind of data set: Inhibition of HCV genotype-1a NS3 protease. Set-up: species or system Hepatitis C virus subtype 1a.

NS3 (Hepatitis C virus, UniProt A3EZJ3, R155K), sequence (A3EZJ3 entry or part of it R155K): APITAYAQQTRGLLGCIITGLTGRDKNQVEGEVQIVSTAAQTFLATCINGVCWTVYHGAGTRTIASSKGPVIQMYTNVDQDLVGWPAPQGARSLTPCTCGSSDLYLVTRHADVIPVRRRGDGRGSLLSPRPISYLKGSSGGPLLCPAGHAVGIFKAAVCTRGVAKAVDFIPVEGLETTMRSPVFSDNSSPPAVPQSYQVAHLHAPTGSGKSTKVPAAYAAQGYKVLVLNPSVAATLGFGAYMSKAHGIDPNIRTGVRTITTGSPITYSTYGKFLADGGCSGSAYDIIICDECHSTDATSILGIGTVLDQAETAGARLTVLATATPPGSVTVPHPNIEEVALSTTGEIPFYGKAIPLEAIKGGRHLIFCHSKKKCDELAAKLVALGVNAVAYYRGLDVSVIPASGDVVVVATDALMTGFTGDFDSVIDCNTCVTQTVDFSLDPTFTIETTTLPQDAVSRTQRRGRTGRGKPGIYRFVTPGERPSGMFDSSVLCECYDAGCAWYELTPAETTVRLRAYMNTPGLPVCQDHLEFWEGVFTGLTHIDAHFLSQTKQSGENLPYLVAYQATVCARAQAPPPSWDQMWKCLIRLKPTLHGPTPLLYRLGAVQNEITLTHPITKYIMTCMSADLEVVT
T1 sequence (A3EZJ3 whole entry): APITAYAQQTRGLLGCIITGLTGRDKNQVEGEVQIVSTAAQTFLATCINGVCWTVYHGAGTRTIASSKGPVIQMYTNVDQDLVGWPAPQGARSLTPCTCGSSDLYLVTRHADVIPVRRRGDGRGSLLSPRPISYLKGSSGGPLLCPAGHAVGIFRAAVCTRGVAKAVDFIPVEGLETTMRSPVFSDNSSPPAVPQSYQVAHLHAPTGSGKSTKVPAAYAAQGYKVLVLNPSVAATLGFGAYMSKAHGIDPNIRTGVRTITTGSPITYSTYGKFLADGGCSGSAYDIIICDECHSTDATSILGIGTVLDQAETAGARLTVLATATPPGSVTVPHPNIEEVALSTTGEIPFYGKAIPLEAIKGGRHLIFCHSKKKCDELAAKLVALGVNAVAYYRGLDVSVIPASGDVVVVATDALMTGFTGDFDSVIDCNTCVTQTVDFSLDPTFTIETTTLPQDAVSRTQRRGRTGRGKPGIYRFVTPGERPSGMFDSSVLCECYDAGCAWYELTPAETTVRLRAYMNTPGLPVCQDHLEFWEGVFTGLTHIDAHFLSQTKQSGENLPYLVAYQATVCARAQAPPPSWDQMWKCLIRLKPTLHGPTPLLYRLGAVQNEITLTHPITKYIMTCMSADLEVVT

Take `O=C(Cn1c(Cc2ccccc2)c(Cl)nc(NNC(=O)c2ccccc2)c1=O)Nc1ccccc1C(=O)NS(=O)(=O)c1ccc(C(F)(F)F)cc1`: the Ki – broadly, the equilibrium dissociation constant of an inhibitor or competing ligand from its target – on NS3 [1] worked out at 1650 nM.

Consider `CC(C)(C)NC(=O)Nc1nc(Cl)c(CCC2CCCCC2)n(CC(=O)Nc2cc(-c3cncnc3)ccc2C(=O)NS(=O)(=O)c2ccc(C(F)(F)F)cc2)c1=O`, for which, on NS3 [2], the Ki was 87 nM.

Consider `CC[C@H](C)[C@H](NC(=O)[C@H](CC(C)C)NC(=O)[C@@H](CC(C(=O)O)C(=O)O)NC(=O)[C@H](CC(=O)O)NC(C)=O)C(=O)N[C@@H](CC1CCCCC1)C(=O)N[C@@H](CS)C(=O)O` (Ac-D[dGla]LI[Cha]C-OH), for which the inhibition constant Ki on NS3 [1] came to 9 nM.

Consider `CC(C)(C)NC(=O)Nc1nc(Cl)c(CCC2CCCCC2)n(CC(=O)Nc2ccccc2C(=O)O)c1=O`, for which, on NS3 [2], the Ki was found to be 70 nM.

With `CC(C)(C)NC(=O)Nc1nc(Cl)c(CCC2CCCCC2)n(CC(=O)NC2(C(=O)NS(=O)(=O)c3ccc(C(F)(F)F)cc3)CC(OCc3ccccc3)C2)c1=O` (stereo not given), the inhibitory constant (Ki) at NS3 [2] came out at 68 nM.

As to `CC(C)(C)N1CCN(c2nc(Cl)c(Cc3ccccc3)n(CC(=O)Nc3ccccc3C(=O)NS(=O)(=O)c3ccc(C(F)(F)F)cc3)c2=O)C1=O`, the Ki at NS3 [1] worked out at 380 nM.

Take `CC(C)(C)NC(=O)Nc1nc(Cl)c(Cc2cccc3ccccc23)n(CC(=O)Nc2ccccc2S(=O)(=O)NC(=O)c2ccc(C(F)(F)F)cc2)c1=O`: on NS3 [2], the Ki turned out to be 170 nM.

With `CC1(C)CC(=O)N(C[C@@H](NC(=O)Nc2nc(Cl)c(CCC3CCCCC3)n(CC(=O)Nc3cc(F)ccc3C(=O)NS(=O)(=O)c3ccc(C(F)(F)F)cc3)c2=O)C(C)(C)C)C(=O)C1`, the midpoint of the response in the data set on Hepatitis C virus, the EC50, lay at 7100 nM. In addition, the Ki on NS3 [2] was 5.4 nM; on NS3 [1] it was 30 nM; on NS3 [3], 2 nM. In addition, half-maximal cytotoxicity in data set [4] (CC50) was put at 26000 nM.

Take `COc1ccc2c(O[C@@H]3C[C@H]4C(=O)N[C@]5(C(=O)O)C[C@H]5/C=C\CCCCC[C@H](NC(=O)OC5CCCC5)C(=O)N4C3)cc(-c3csc(NC(C)C)n3)nc2c1` [CILUPREVIR]: the Ki worked out at 20 nM on NS3 [2] and 0.089 nM on NS3 [5]. Moreover, the half-maximal cytotoxic concentration (CC50) – broadly, the concentration giving 50% cytotoxicity – in data set [4] is greater than 100 nM.

Consider `CC(C)(C)[C@@H](CNS(=O)(=O)c1cccnc1)NC(=O)Nc1nc(Cl)c(Cc2ccccc2)n(CC(=O)Nc2cc(F)ccc2C(=O)NS(=O)(=O)c2ccc(C(F)(F)F)cc2)c1=O`, for which the results for the inhibition constant Ki on NS3 [1] and on NS3 [3] were 190 nM and 40 nM, respectively.

Turning to `CC1(C)CC(=O)N(C[C@@H](NC(=O)Nc2nc(Cl)c(Cc3ccccc3)n(CC(=O)Nc3cc(F)ccc3C(=O)NS(=O)(=O)c3ccc(C(F)(F)F)cc3)c2=O)C(C)(C)C)C(=O)C1`, the Ki at NS3 [2] was 135 nM; at NS3 [1], 160 nM; at NS3 [3], 30 nM.

(Values after ChEMBL document CHEMBL4196039, “Pan-NS3 protease inhibitors of hepatitis C virus based on an R3-elongated pyrazinone scaffold” (Eur J Med Chem, 2018).)
